# Assay results taken from ChEMBL document CHEMBL4270502, “From bench (laboratory) to bed (hospital/home): How to explore effective natural and synthetic PAK1-blockers/longevity-promoters for cancer therapy” (Eur J Med Chem, 2017).
# pIC50: −log10 of the molar value.
# Key:
# A549 [1] = experiment: Growth inhibition of human A549 cells; assay type: functional, cell-based
# Caenorhabditis elegans [2] = experiment: Increase in lifespan of Caenorhabditis elegans N2 var. Bristol at 40 uM; assay type: functional
# Caenorhabditis elegans [3] = experiment: Increase in lifespan of Caenorhabditis elegans age-1(hx546) at 40 uM; assay type: functional
# [4] = target: T1, Serine/threonine-protein kinase PAK 1 (Homo sapiens, UniProt Q13153); experiment: Inhibition of HA-PAK1 (unknown origin) using histone H4 substrate and [gamma-32P] ATP by autoradiography
# T1 sequence (Q13153 whole entry): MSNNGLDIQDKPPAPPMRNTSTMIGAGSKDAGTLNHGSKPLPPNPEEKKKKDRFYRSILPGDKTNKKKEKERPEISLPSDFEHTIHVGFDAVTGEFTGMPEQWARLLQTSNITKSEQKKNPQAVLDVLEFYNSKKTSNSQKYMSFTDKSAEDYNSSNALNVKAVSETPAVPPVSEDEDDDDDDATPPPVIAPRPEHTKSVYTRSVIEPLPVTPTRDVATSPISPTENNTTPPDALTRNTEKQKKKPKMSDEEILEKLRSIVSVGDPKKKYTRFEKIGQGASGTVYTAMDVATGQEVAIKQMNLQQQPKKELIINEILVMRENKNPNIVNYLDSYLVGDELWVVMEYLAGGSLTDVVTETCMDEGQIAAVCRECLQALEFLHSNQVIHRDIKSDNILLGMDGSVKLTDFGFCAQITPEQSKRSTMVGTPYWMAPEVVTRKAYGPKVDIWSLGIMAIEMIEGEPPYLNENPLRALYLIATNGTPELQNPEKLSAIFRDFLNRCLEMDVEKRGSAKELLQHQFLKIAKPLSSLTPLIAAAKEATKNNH
# [5] = target: T2, Serine/threonine-protein kinase PAK 1 (Mus musculus, UniProt O88643); experiment: Inhibition of PAK1 in v-Ha-RAS-transformed mouse NIH/3T3 cells incubated for 1 hr by immunoblot analysis
# T2 sequence (O88643 whole entry): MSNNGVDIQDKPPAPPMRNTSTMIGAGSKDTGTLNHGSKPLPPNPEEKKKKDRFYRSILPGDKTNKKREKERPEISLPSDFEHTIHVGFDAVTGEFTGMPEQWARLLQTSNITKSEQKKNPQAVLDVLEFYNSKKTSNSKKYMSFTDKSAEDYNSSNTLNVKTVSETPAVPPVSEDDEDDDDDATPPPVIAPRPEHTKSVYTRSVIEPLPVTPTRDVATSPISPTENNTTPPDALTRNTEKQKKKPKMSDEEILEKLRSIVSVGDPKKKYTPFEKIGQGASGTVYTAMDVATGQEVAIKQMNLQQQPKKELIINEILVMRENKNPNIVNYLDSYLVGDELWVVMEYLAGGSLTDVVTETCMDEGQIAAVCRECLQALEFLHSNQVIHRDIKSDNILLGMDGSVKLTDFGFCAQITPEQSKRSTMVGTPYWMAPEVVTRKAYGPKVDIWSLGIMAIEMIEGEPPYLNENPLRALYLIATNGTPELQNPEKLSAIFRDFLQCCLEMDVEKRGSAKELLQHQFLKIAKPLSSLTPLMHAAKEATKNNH
# [6] = target: Mitogen-activated protein kinase kinase kinase 11 (Homo sapiens, UniProt Q16584); experiment: Inhibition of flag-tagged MLK3 (unknown origin) expressed in human HeLa cells assessed as reduction in enzyme autophosphorylation incubated for 20 mins by immunoprecipitatation; assay type: cell-based
# Mitogen-activated protein kinase kinase kinase 11, sequence (Q16584 whole entry): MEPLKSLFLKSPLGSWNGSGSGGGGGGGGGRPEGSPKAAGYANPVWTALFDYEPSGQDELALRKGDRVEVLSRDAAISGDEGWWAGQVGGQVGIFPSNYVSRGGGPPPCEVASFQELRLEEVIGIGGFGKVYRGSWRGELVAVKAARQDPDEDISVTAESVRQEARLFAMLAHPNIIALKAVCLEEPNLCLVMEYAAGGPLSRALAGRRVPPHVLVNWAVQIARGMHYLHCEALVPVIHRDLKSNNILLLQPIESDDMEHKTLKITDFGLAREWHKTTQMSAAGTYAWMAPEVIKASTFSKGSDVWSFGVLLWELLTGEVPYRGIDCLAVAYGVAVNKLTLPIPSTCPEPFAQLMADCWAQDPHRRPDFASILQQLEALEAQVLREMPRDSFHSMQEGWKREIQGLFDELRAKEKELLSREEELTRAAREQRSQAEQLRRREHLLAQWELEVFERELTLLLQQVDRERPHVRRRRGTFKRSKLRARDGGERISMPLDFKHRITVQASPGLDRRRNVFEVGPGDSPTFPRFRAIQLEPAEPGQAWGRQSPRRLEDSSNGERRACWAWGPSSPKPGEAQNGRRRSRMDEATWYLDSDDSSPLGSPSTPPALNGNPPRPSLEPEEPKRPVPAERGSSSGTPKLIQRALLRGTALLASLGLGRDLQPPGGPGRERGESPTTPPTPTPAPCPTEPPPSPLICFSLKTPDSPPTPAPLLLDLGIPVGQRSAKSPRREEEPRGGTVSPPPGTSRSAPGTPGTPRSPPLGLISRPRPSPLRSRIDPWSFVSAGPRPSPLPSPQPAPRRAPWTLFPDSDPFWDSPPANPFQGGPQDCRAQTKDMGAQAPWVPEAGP
# A549 [7] = experiment: Growth inhibition of RAS-transformed human A549 cells; assay type: functional, cell-based
# Caenorhabditis elegans [8] = experiment: Increase in lifespan of Caenorhabditis elegans; assay type: functional
# [9] = target: T1, Serine/threonine-protein kinase PAK 1; experiment: Inhibition of PAK1 in human MCF7 cells transfected with constitutively active NH2-terminally truncated C1199 Tiam1 construct; assay type: cell-based
# [10] = target: Serine/threonine-protein kinase PAK 3 (Homo sapiens, UniProt O75914); experiment: Inhibition of GST-tagged PAK3 (unknown origin) expressed in Escherichia coli using peptide PC9 substrate
# Serine/threonine-protein kinase PAK 3, sequence (O75914 whole entry): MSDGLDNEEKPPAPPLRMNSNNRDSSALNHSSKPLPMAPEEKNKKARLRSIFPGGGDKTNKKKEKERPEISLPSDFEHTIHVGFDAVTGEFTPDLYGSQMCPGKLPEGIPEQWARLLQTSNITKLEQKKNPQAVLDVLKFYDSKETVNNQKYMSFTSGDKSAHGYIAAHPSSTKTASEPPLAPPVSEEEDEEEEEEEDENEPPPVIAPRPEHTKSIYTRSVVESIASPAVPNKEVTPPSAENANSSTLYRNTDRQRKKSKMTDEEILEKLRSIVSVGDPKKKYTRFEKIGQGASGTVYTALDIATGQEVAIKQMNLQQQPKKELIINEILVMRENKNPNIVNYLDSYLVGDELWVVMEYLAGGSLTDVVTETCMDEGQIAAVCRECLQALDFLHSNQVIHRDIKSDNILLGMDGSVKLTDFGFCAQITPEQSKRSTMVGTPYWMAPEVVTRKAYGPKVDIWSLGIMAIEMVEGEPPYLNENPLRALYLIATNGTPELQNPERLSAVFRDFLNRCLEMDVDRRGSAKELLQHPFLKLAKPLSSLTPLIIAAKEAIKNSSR
# Protein kinase C (PKC) = experiment: Inhibition of rat brain PKC using […] derived peptide substrate
# [11] = target: T1, Serine/threonine-protein kinase PAK 1; experiment: Inhibition of recombinant human PAK1 by ADP-Glo kinase assay
# [12] = target: T1, Serine/threonine-protein kinase PAK 1; experiment: Inhibition of PAK1 (unknown origin)
# [13] = target: T1, Serine/threonine-protein kinase PAK 1; experiment: Inhibition of PAK1 (unknown origin) by cell culture based assay
# [14] = Growth stimulation of HFDPC assessed as increase in cell viability incubated for 3 days by MTT assay; assay type: functional, Homo sapiens
# [15] = Cytotoxicity in human M8 cells by MTT assay; assay type: functional, cell-based
# [16] = Potency index, ratio of IC50 for caffeic acid to IC50 for test compound for cytotoxicity in human M8 cells by MTT assay; assay type: functional
# Caenorhabditis elegans [17] = experiment: Increase in lifespan of Caenorhabditis elegans N2 at 100 uM; assay type: functional
# Mus musculus = experiment: Increase in lifespan of C57BL/6J mouse at 2 mg/kg/day dosed in drinking water; assay type: functional; conditions: feed or water
# [18] = Stability assessed as shelf life at 4 degC; assay type: physicochemical
# [19] = target: T2, Serine/threonine-protein kinase PAK 1; experiment: Inhibition of PAK1 in v-Ha-RAS-transformed mouse NIH/3T3 cells incubated for 48 hrs by immunoblot analysis
# [20] = target: T1, Serine/threonine-protein kinase PAK 1; experiment: Inhibition of PAK1 in estrogen-stimulated human MCF7 cells incubated for 48 hrs by immunoblot analysis; assay type: cell-based
# PC-3 = experiment: Antitumor activity against human PC3 cells wenografted in mouse assessed as inhibition of tumor growth at 3 mg/kg/day; assay type: functional; conditions: read-out: TGI
# [21] = target: T1, Serine/threonine-protein kinase PAK 1; experiment: Inhibition of PAK1 in human A549 cells; assay type: cell-based
# Caenorhabditis elegans [22] = experiment: Increase in lifespan of Caenorhabditis elegans N2 CGCb under 2 mM H2O2-induced oxidative stress conditions at 1 to 50 mg/L; assay type: functional
smiles,measurement,setting,value
CC1=C(/C=C/C(C)=C/C=C/C(C)=C/C=C/C=C(C)/C=C/C=C(C)/C=C/C2=C(C)C(=O)C(O)CC2(C)C)C(C)(C)CC(O)C1=O (stereo not given),pIC50,A549 [1],4.40
same,Activity,Caenorhabditis elegans [2],16 - 30%
same,Activity,Caenorhabditis elegans [3],16 - 30%
CCCCCC(=O)c1c(O)cc(OC)c(Cl)c1O,pIC50,A549 [1],5.52 to 5.70
same,pIC50,[4],5.60
CCSCc1ccc2c(c1)c1c3c(c4c5cc(CSCC)ccc5n5c4c1n2C1C[C@](O)(C(=O)OC)[C@]5(C)O1)CNC3=O,pIC50,A549 [1],6.00
same,pIC50,[5],6.00
same,pIC50,[6],7.70
same,pIC50,A549 [7],6.00
Cc1ccc(-c2nn(C(C)(C)C)c3ncnc(N)c23)cc1,pIC50,A549 [1],8.00
CC(C)NC(=O)N1CC[C@H](NC2=Nc3cc(F)ccc3N(CC(F)F)c3ccc(Cl)cc32)C1,pIC50,A549 [1],6.60
CNc1ncc2cc(-c3ccc(-c4cccc(C)n4)cc3Cl)c(=O)n(C[C@H]3OC[C@H](N)CO3)c2n1,pIC50,A549 [1],< 6.00
CCS(=O)(=O)c1cc(Nc2ncc(F)c(N(Cc3ccccc3C#N)c3cc(CO)ccc3C)n2)ccc1N1CCN(C)CC1,pIC50,A549 [1],7.22
COc1ccccc1-n1cc(COC(=O)C2CCn3c(C(=O)c4ccccc4)ccc32)nn1 (stereo not given),ILS,Caenorhabditis elegans [8],30%
Cc1cc(C)cc(NC(=N)Nc2ccccc2C(F)(F)F)c1,pIC50,[9],5.40
CN[C@@H]1C[C@H]2O[C@@](C)([C@@H]1OC)n1c3ccc(O)cc3c3c4c(c5c6cc(O)ccc6n2c5c31)C(=O)NC4,pIC50,[10],9.00
same,IC50,Protein kinase C (PKC),0.001 µM
COc1ccccc1-n1cc(COC(=O)/C=C/c2ccc(O)c(O)c2)nn1,pIC50,A549 [1],6.65
CC(=O)CCC=C(C)CCC=C(C)CCC=C(C)CCC=C(C)C,pIC50,A549 [1],5.00
CC(C)(C)c1cc(/C=C(\C#N)C(=S)NCCCCCCN)cc(C(C)(C)C)c1O,pIC50,A549 [1],8.30
CO[C@@H]1[C@@H](O)[C@H](O[C@@H]2[C@@H](O)[C@H](O[C@H]3[C@H](O)[C@@H](O[C@@H]4OC[C@@H](O)[C@H](O)[C@H]4O)[C@H](O[C@H]4[C@H](O[C@H]5CC[C@]6(C)[C@@H]7CCC89C(=O)O[C@@](C)(CCCC(C)C)[C@H]8[C@@H](OC(C)=O)C[C@@]9(C)C7=CC[C@H]6C5(C)C)OC[C@@H](OS(=O)(=O)O)[C@@H]4O)O[C@@H]3C)OC[C@H]2O)O[C@H](CO)[C@H]1O (stereo not given in full),pIC50,A549 [1],5.82 to 6.22
same,pIC50,[11],6.00
same,pIC50,A549 [7],6.00
COc1ccccc1-n1cc(COC(=O)[C@]23CC[C@@H](C)[C@H](C)[C@H]2C2=CC[C@@H]4[C@@]5(C)CC[C@H](O)C(C)(C)[C@@H]5CC[C@@]4(C)[C@]2(C)CC3)nn1,pIC50,A549 [1],7.00
Oc1ccc2ccccc2c1SSc1c(O)ccc2ccccc12,pIC50,A549 [1],4.52
same,pIC50,[12],6.00
CC(C)=CCc1cc(/C=C/C(=O)O)cc(CC=C(C)C)c1O [ARTEPILLIN],pIC50,[13],4.60
same,ED,[14],20 µM
same,pIC50,A549 [1],4.60
O=C(/C=C/c1ccc(O)c(O)c1)OCCc1ccccc1 [CAFFEIC ACID PHENETHYL ESTER],pIC50,[15],5.00
same,Ratio IC50,[16],10
same,Activity,Caenorhabditis elegans [17],15%
same,pIC50,A549 [1],5.00
O=C(O)/C=C/c1ccc(O)c(O)c1 [CAFFEIC ACID],pIC50,[15],4.00
CC(C)(O)/C=C/C(=O)[C@](C)(O)[C@H]1[C@H](O)C[C@@]2(C)[C@@H]3CC=C4[C@@H](C=C(O)C(=O)C4(C)C)[C@]3(C)C(=O)C[C@]12C [CUCURBITACIN I],pIC50,A549 [1],6.85
COc1cc(/C=C/C(=O)CC(=O)/C=C/c2ccc(O)c(OC)c2)ccc1O [CURCUMIN],pIC50,A549 [1],4.64
C[C@H](CCCCC(=O)O)O[C@@H]1O[C@@H](C)[C@H](O)C[C@H]1O [DAUMONE],pIC50,A549 [1],7.70
same,ILS at 2 mg/kg/day,Mus musculus,50%
COc1ccc2[nH]cc(CCNC(C)=O)c2c1 [MELATONIN],pIC50,A549 [1],2.89
CC(C)[C@]12O[C@H]1[C@@H]1O[C@]13[C@]1(O[C@H]1C[C@H]1C4=C(CC[C@@]13C)C(=O)OC4)[C@@H]2OCOP(=O)([O-])[O-].[Na+].[Na+] [MINNELIDE],Stability,[18],2 yr
COc1c(C)c2c(c(O)c1C/C=C(\C)CCC(=O)OCCN1CCOCC1)C(=O)OC2 [MYCOPHENOLATE MOFETIL],pIC50,A549 [1],6.30 to 7.30
CC(C)=CCC/C(C)=C/Cc1c(O)cc2c(c1O)C(=O)C[C@@H](c1ccc(O)c(O)c1)O2 [NYMPHAEOL A],pIC50,A549 [1],5.15 to 5.40
CC(C)=CCC/C(C)=C/Cc1c([C@@H]2CC(=O)c3c(O)cc(O)cc3O2)ccc(O)c1O [NYMPHAEOL B],pIC50,A549 [1],5.15 to 5.40
CC(C)=CCC/C(C)=C/Cc1c([C@@H]2CC(=O)c3c(cc(O)c(CC=C(C)C)c3O)O2)ccc(O)c1O [NYMPHAEOL C],pIC50,A549 [1],5.15 to 5.40
Oc1ccc(/C=C/c2cc(O)cc(O)c2)cc1 [RESVERATROL],pIC50,A549 [1],4.52
same,pIC50,[11],4.82
C/C=C1\NC(=O)[C@H]2CSSCC/C=C/[C@H](CC(=O)N[C@H](C(C)C)C(=O)N2)OC(=O)[C@H](C(C)C)NC1=O [ROMIDEPSIN],pIC50,[19],> 9.00
same,pIC50,[20],> 9.00
COCCn1c2c([n+](Cc3cnccn3)c1C)C(=O)c1ccccc1C2=O [SEPANTRONIUM BROMIDE],pIC50,A549 [1],7.87
same,inhibition in vivo at 3 mg/kg/day,PC-3,> 50%
same,pIC50,[21],6.30
CC(C)[C@]12O[C@H]1[C@@H]1O[C@]13[C@]1(O[C@H]1C[C@H]1C4=C(CC[C@@]13C)C(=O)OC4)[C@@H]2O [TRIPTOLIDE],pIC50,A549 [1],7.52
same,ILS,Caenorhabditis elegans [8],20%
same,ILS,Caenorhabditis elegans [22],20%
CC(C)(C)c1cc(/C=C(\C#N)C(N)=S)cc(C(C)(C)C)c1O [TYRPHOSTIN AG 879],pIC50,A549 [1],8.30
